Test results taken from BindingDB's records for patent US10919852 (Chemocentryx, 2021).

Molecular target: Programmed cell death 1 ligand 1 (Homo sapiens, UniProt Q9NZQ7)
Assay: Enzyme-Linked Immunosorbent Assay ELISA
Protocol: 96 Well plates were coated with […] of human PD-L1 (obtained from R&D) in PBS overnight at 4° C. The wells were then blocked with 2% BSA in PBS (W/V) with 0.05% TWEEN-20 for 1 hour at 37° C. The plates were washed 3 times with PBS/0.05% TWEEN-20 and the compounds were serial diluted (1:5) in dilution medium and added to the ELISA plates. Human PD-1 and biotin 0.3 μg/mL (ACRO Biosystems) were added and incubated for 1 hour at 37° C. then washed 3 times with PBS/0.05% TWEEN-20. A second block was performed with 2% BSA in PBS (W/V)/0.05% TWEEN-20 for 10 min at 37° C. and was washed 3 times with PBS/0.05% TWEEN-20. Streptavidin-HRP was added for 1 hour at 37° C. then washed 3 times with PBS/0.05% TWEEN-20. TMB substrate was added and reacted for 20 min at 37° C. A stop solution (2 N aqueous H2SO4) was added. The absorbance was read at 450 nm using a micro-plate spectrophotometer.

Chain of Programmed cell death 1 ligand 1 (Q9NZQ7 whole entry): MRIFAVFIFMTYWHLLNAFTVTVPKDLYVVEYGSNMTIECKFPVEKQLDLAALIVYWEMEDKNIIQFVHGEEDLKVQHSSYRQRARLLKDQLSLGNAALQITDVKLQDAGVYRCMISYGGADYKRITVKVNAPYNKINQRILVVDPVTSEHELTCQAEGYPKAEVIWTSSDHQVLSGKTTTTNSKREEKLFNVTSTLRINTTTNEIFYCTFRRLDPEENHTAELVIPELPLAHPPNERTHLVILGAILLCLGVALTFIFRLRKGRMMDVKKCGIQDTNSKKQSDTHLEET

| SMILES | IC50 |
| --- | --- |
| CC1(F)CCN(CCCOc2cccc(-c3cccc4c3CC[C@@H]4Oc3cc(OCc4cncc(C#N)c4)c(CN[C@H]4CCC(=O)NC4)cc3Cl)c2Cl)CC1 [US10919852, Compound TABLE 1.280] | in the range around 253 nM |
| Cc1c(OCCCN2CCC(C)(F)CC2)cccc1-c1cccc2c1CC[C@@H]2Oc1cc(OCc2cc(C#N)cc(C#N)c2)c(CN[C@@H]2CCC[C@H]2O)cc1Cl [US10919852, Compound TABLE 1.294] | in the range around 253 nM |
| Cc1c(OCCCN2CC[C@H](F)C[C@@H]2C)cccc1-c1cccc2c1CC[C@@H]2Oc1cc(OCc2cc(C#N)cc(C#N)c2)c(CN[C@H]2CCC(=O)NC2)cc1Cl [US10919852, Compound TABLE 1.341] | in the range around 253 nM |
| CCOc1cc(O[C@H]2CCc3c(-c4cccc(OCCCN5[C@H](C)CC[C@H]5C)c4C)cccc32)c(Cl)cc1CN1CCCC[C@H]1C(=O)O [US10919852, Compound TABLE 1.381] | in the range around 253 nM |
| CCOc1cc(O[C@H]2CCc3c(-c4cccc(OCCCN5CCC5(C)C)c4C)cccc32)c(Cl)cc1CN1CC[C@H](C(=O)O)C1 [US10919852, Compound TABLE 1.412] | in the range around 253 nM |
